This data set is described as follows: Micro evaporation screening, re-dissolution of API:polymer matrices. Type of data set: physicochemical. How it is done: Micro evaporation screening experiments were done by dissolving API and polymer in an organic solvent and mixed in centrifuge tubes. Then the solvent was removed using vacuum concentrator. Samples were then mixed for 4, 10, and 30 minutes using phosphate buffer pH 6.8 as a reconstitution medium. For Eudragit S100 phosphate buffer pH 7.4 was used as a reconstitution media, citrate buffer pH 4.5 was used for Eudragit EPO. Phosphate buffer pH 6.8 was used for the rest of the polymers. Samples were mixed for 4, 10, and 30 minutes. Analysis was done by UV spectrometry to measure re-dissolution behavior of polymer system.
Several organic solvents were screened for the micro evaporation screening trials including acetone, tetrahydrofuran, dichloromethane, methanol, and ethanol.
Round 1 matrix Screening • 30:70 API:Soluplus • 30:70 API:Eudragit EPO • 30:70 API:Kollidon VA 64 • 25:75 API:PVP K30 • 25:75 API:Eudragit S100
Round 2 matrix screening with surfactants
Surfactants/solubilizers (5-10%) were screened for enhancement of spring-parachute effect, which is a strategy used in the pharmaceutical formulation to improve the solubility and bioavailability of poorly-soluble drugs: • PEG 1500 • Poloxamer 407 (HLB˜18) • SLS (HLB˜40) • Kolliphor RH40 (HLB−15) • TPGS (HLB˜13)
CBD Miniaturized Screening Experiment—Micro Evaporation Matrices screened: • API:Soluplus (30:70) • API:Eudragit EPO (30:70) • API:PVP K30 (25:75) • API:Eudragit S100 (25:75) • API:Kollidon VA64 (10:90) • API+Kollidon VA64+PEG1500 (10:85:5) • API+Kollidon VA64+SLS (10:85:5) • API+Kollidon VA64+Kolliphor RH40 (10:85:5) • API+Kollidon VA64+TPGS (10:85:5) • API+Kollidon VA64+Poloxamer 407 (10:85:5)
CBDA Miniaturized Screening Experiment—Micro Evaporation Matrices screened: • API:Eudragit EPO (30:70) • API:PVP K30 (30:70) • API:Soluplus (30:70) • API:Eudragit S100 (30:70) • API:Kollidon VA64 (25:75) • API+Kollidon VA64+PEG1500 (25:70:5) • API+Kollidon VA64+SLS (25:70:5) • API+Kollidon VA64+Kolliphor RH40 (25:70:5) • API+Kollidon VA64+TPGS (25:70:5) • API+Kollidon VA64+Poloxamer 407 (25:70:5)

Molecules are shown by their SMILES.

The values that follow come from US20240226122A9, “TREATMENT OF GASTROINTESTINAL DISORDERS” (Greenspace Labs, Inc., priority 2022, published 2024).

For the molecule `C=C(C)[C@@H]1CCC(C)=C[C@H]1c1c(O)cc(CCCCC)cc1O` [CBD, cannabidiol, reference compound], the “re-dissolution of API from matrix” value (CBD matrix with Kollidon VA64, at 10 min, 1 mg API per tube) is “complete dissolution”.

`C=C(C)[C@@H]1CCC(C)=C[C@H]1c1c(O)cc(CCCCC)c(C(=O)O)c1O` [CBDA, cannabidiolic acid] showed a dissolution concentration (CBDA matrix with Kollidon VA64 with addition of SLS, Kolliphor RH40, 10 and 30 min timepoints) of 490 to 500 µg/mL.

The molecule `CCCCCc1cc(O)c(C/C=C(\C)CCC=C(C)C)c(O)c1C(=O)O` [CBGA, cannabigerolic acid] displayed a dissolution concentration (CBGA matrix with Kollidon VA64 with addition of SLS and Poloxamer 407) of 520 to 550 µg/mL.
